Several values for one entry are separate records, joined by “and”; a condition that tells them apart may be missing. Equal entries are not always repeated. Where two headings read alike, the source gives them in different places.
Tests used:
hNav1.7 = hNav1.7 (Homo sapiens, UniProt Q15858); test: cell-based; format: cell-based
hNav1.4 = hNav1.4 (Homo sapiens, UniProt P35499); test: cell-based; conditions: for IC50: PatchXpress, read-out: PX hNav1.4 Tonic IC50
[1] = PatchXpress, tonic block, read-out: PX hNav1.7 Tonic IC50
[2] = PatchXpress, * = at high concentrations compound would wash off slowly or not at all, read-out: PX hNav1.7 Tonic IC50
[3] = * = at high concentrations compound would wash off slowly or not at all

Chain of hNav1.7 (Q15858 whole entry): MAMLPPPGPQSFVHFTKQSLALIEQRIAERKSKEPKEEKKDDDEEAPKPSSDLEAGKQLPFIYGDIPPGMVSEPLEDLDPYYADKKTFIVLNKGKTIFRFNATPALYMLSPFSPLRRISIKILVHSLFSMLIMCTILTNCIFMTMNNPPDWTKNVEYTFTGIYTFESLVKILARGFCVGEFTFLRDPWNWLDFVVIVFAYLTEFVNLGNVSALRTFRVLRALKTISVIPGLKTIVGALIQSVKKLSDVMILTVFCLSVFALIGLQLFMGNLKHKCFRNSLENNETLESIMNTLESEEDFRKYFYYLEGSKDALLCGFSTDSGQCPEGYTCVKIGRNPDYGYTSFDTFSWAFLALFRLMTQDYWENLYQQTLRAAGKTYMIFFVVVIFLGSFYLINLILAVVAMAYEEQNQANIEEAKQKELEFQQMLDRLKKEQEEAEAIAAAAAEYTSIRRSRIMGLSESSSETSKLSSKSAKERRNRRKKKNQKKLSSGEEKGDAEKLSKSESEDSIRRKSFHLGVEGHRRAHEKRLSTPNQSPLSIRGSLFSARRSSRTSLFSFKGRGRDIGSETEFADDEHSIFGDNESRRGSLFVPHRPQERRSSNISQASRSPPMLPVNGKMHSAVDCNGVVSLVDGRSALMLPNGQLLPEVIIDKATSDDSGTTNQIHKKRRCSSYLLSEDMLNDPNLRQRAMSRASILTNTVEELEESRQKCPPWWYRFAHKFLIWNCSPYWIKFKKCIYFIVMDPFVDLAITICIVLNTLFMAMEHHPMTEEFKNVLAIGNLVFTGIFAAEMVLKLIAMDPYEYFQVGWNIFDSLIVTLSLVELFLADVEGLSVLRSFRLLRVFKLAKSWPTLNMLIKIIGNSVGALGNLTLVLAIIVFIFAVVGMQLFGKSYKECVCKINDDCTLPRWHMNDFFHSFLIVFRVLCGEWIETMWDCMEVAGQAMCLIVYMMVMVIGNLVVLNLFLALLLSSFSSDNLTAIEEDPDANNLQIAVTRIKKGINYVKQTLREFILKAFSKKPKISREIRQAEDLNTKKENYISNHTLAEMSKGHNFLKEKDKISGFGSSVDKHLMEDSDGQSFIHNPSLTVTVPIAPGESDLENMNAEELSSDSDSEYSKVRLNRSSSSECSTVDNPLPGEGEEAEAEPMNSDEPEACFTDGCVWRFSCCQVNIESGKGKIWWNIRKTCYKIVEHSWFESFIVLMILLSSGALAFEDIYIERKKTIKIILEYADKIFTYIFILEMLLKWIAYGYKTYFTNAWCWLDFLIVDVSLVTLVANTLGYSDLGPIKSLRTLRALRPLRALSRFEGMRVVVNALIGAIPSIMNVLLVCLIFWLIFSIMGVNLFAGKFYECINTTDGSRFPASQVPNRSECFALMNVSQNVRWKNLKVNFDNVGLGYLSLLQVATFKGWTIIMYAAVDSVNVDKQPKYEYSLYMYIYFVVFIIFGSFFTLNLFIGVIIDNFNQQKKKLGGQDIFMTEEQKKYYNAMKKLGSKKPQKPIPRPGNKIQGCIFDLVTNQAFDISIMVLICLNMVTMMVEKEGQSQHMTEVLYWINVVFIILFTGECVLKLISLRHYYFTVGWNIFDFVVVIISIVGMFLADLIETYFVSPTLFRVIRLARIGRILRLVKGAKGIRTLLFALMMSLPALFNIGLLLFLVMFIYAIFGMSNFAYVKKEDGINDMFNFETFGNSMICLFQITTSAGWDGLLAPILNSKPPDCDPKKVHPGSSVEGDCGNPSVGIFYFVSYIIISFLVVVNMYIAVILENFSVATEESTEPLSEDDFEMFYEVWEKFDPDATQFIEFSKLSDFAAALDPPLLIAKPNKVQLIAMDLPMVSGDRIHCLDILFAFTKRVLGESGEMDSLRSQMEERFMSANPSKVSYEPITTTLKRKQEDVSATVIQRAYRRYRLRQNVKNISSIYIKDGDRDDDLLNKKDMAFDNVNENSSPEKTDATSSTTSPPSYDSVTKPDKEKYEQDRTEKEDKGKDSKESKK
Chain of hNav1.4 (P35499 whole entry): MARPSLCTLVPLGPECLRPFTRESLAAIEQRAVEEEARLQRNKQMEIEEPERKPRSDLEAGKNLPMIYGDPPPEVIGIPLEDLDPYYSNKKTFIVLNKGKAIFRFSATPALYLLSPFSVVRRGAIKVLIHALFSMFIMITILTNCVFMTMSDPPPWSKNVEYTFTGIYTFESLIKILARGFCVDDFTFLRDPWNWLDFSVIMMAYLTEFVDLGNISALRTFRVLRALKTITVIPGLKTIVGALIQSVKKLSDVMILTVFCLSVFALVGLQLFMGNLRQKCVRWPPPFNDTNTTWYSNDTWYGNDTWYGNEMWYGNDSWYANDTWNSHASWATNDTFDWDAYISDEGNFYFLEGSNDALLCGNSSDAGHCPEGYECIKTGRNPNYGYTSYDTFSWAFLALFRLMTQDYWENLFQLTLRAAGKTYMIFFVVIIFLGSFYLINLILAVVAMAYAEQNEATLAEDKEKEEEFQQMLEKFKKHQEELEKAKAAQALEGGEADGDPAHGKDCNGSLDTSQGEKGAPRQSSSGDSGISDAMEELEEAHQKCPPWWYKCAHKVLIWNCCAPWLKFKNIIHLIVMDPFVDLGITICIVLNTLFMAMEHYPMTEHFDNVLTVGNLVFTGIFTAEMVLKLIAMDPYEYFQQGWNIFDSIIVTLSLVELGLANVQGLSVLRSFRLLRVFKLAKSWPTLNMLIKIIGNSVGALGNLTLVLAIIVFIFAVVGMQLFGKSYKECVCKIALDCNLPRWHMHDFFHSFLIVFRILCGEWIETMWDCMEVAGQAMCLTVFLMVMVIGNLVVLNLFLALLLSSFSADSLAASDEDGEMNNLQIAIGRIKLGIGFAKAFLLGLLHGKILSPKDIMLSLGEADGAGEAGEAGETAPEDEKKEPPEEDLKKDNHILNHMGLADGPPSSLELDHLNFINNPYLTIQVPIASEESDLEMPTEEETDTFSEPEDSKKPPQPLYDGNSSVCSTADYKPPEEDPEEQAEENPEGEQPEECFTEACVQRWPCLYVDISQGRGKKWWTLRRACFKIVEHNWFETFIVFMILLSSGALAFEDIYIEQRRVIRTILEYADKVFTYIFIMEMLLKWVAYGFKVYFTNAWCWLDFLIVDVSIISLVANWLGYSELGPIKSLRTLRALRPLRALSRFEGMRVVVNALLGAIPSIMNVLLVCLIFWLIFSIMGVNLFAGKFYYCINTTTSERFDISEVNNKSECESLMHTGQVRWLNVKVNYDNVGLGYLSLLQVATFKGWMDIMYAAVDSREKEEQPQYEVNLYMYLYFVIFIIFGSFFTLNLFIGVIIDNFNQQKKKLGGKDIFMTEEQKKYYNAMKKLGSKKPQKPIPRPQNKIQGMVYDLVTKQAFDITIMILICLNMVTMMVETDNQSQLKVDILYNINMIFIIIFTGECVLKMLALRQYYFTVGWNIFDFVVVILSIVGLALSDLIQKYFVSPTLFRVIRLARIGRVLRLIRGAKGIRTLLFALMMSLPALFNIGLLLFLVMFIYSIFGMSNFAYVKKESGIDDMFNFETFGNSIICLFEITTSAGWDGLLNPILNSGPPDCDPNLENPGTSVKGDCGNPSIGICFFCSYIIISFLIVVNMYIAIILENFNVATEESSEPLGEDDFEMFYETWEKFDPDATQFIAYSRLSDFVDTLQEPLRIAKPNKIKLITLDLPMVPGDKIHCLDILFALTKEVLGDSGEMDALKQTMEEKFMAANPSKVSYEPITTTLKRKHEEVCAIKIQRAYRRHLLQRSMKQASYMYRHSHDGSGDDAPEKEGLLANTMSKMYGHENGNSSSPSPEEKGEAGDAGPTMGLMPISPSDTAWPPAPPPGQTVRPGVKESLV

C#CC[C@H](N)C(=O)NCCCC[C@@H]1NC(=O)[C@H](CCCNC(=N)N)NC(=O)[C@H](CCCCN)NC(=O)[C@H](CO)NC(=O)[C@H](CC(=O)O)NC(=O)[C@@H]2CSSC[C@@H]3NC(=O)[C@H](CCC(=O)O)NC(=O)[C@H](CC(C)C)NC(=O)CNC(=O)[C@H](CCC(=O)O)NC(=O)[C@H](CSSC[C@H](NC(=O)[C@H](Cc4ccc(O)cc4)NC(=O)[C@@H](N)CC#N)C(=O)N[C@@H](CCC(N)=O)C(=O)N[C@@H](CCCCN)C(=O)N[C@@H](Cc4c[nH]c5ccccc45)C(=O)N[C@@H](CCCC)C(=O)N[C@@H](Cc4c[nH]c5ccccc45)C(=O)N[C@@H]([C@@H](C)O)C(=O)N2)NC(=O)[C@H](CSSC[C@@H](C(=O)N[C@@H](CCCNC(=N)N)C(=O)N[C@@H](CCCCN)C(=O)N[C@H](C(=O)N[C@H](C(N)=O)[C@@H](C)CC)[C@@H](C)CC)NC(=O)[C@H](Cc2c[nH]c4ccccc24)NC(=O)[C@H](CC(C)C)NC(=O)[C@H](CCCCN)NC3=O)NC1=O [compound 393]
IC50 (hNav1.7; [1]): > 100 nM | IC50 (hNav1.4; tonic block): > 10000 nM

C#CC[C@H](N)C(=O)NCCCC[C@@H]1NC(=O)[C@H](CCCNC(=N)N)NC(=O)[C@H](CCCCN)NC(=O)[C@H](CO)NC(=O)[C@H](CC(=O)O)NC(=O)[C@@H]2CSSC[C@@H]3NC(=O)[C@H](CCC(=O)O)NC(=O)[C@H](CC(C)C)NC(=O)CNC(=O)[C@H](CCC(=O)O)NC(=O)[C@H](CSSC[C@H](NC(=O)[C@H](Cc4ccc(O)cc4)NC(=O)[C@@H](N)CC#N)C(=O)N[C@@H](CCC(N)=O)C(=O)N[C@@H](CCCCN)C(=O)N[C@@H](Cc4c[nH]c5ccccc45)C(=O)N[C@@H](CCCC)C(=O)N[C@@H](Cc4c[nH]c5ccccc45)C(=O)N[C@@H]([C@@H](C)O)C(=O)N2)NC(=O)[C@H](CSSC[C@@H](C(=O)N[C@@H](CCCNC(=N)N)C(=O)N[C@@H](CCCCN)C(=O)N[C@@H](Cc2ccc(O)cc2)C(=O)N[C@H](C(N)=O)[C@@H](C)CC)NC(=O)[C@H](Cc2c[nH]c4ccccc24)NC(=O)[C@H](CC(C)C)NC(=O)[C@H](CCCCN)NC3=O)NC1=O [compound 394]
IC50 (hNav1.7; [1]): 0.05 nM | IC50 (hNav1.4; tonic block): 964 nM

C#CC[C@@H]1NC(=O)[C@@H]2CSSC[C@H](NC(=O)[C@H](Cc3ccc(O)cc3)NC(=O)[C@@H](N)CC#N)C(=O)N[C@@H](CCC(N)=O)C(=O)N[C@@H](CCCCN)C(=O)N[C@@H](Cc3c[nH]c4ccccc34)C(=O)N[C@@H](CCCC)C(=O)N[C@@H](Cc3c[nH]c4ccccc34)C(=O)N[C@@H]([C@@H](C)O)C(=O)N[C@H]3CSSC[C@H](NC(=O)[C@H](CCC(=O)O)NC(=O)[C@H](CC(C)C)NC(=O)CNC1=O)C(=O)N[C@@H](CCCCN)C(=O)N[C@@H](CC(C)C)C(=O)N[C@@H](Cc1c[nH]c4ccccc14)C(=O)N[C@H](C(=O)N[C@@H](CCCNC(=N)N)C(=O)N[C@@H](CCCCN)C(=O)N[C@@H](Cc1ccc(O)cc1)C(=O)N[C@H](C(N)=O)[C@@H](C)CC)CSSC[C@H](NC(=O)[C@H](C)NC(=O)[C@H](CCCNC(=N)N)NC(=O)[C@H](CCCCN)NC(=O)[C@H](CO)NC(=O)[C@H](CC(=O)O)NC3=O)C(=O)N2 [compound 397]
IC50 (hNav1.7; [1]): 87.1 nM | IC50 (hNav1.4; tonic block): 1760 nM | Nav1.4/Nav1.7 (hNav1.4; ratio of PX tonic IC50 values): 20

CCCC[C@@H]1NC(=O)[C@H](Cc2c[nH]c3ccccc23)NC(=O)[C@H](CCCCN)NC(=O)[C@H](CCC(N)=O)NC(=O)[C@@H](NC(=O)[C@@H](N)Cc2ccc(O)cc2)CSSC[C@@H]2NC(=O)[C@@H]3CSSC[C@@H](C(=O)N[C@@H](CCCNC(=N)N)C(=O)N[C@@H](CCCCN)C(=O)N[C@@H](CCC(=O)O)C(=O)N[C@H](C(N)=O)[C@@H](C)CC)NC(=O)[C@H](Cc4c[nH]c5ccccc45)NC(=O)[C@H](CC(C)C)NC(=O)[C@H](CCCCN)NC(=O)[C@H](CSSC[C@H](NC(=O)[C@H]([C@@H](C)O)NC(=O)[C@H](Cc4c[nH]c5ccccc45)NC1=O)C(=O)N[C@@H](CC(=O)O)C(=O)N[C@@H](CO)C(=O)N[C@@H](CCCCN)C(=O)N[C@@H](CCCNC(=N)N)C(=O)N[C@@H](C)C(=O)N3)NC(=O)[C@H](CCCNC(=N)N)NC(=O)[C@H](CC(C)C)NC(=O)CNC(=O)[C@H](Cc1cn(CCCOCCOCCOCCOCCOCCOCCOCCOCCOCCOCCN)nn1)NC2=O [compound 406]
IC50 (hNav1.7; [2]): 5.88 nM | IC50 (hNav1.4; [3]): 65.9 nM | Nav1.4/Nav1.7 (hNav1.4; ratio of PX IC50 values): 11

CCCC[C@@H]1NC(=O)[C@H](Cc2c[nH]c3ccccc23)NC(=O)[C@H](CCCCN)NC(=O)[C@H](CCC(N)=O)NC(=O)[C@@H](NC(=O)[C@@H](N)Cc2cn(CCCOCCOCCOCCOCCOCCOCCOCCOCCOCCOCCN)nn2)CSSC[C@@H]2NC(=O)[C@@H]3CSSC[C@@H](C(=O)N[C@@H](CCCNC(=N)N)C(=O)N[C@@H](CCCCN)C(=O)N[C@H](C(=O)N[C@H](C(N)=O)[C@@H](C)CC)[C@@H](C)CC)NC(=O)[C@H](Cc4c[nH]c5ccccc45)NC(=O)[C@H](CC(C)C)NC(=O)[C@H](CCCCN)NC(=O)[C@H](CSSC[C@H](NC(=O)[C@H]([C@@H](C)O)NC(=O)[C@H](Cc4c[nH]c5ccccc45)NC1=O)C(=O)N[C@@H](CC(=O)O)C(=O)N[C@@H](CO)C(=O)N[C@@H](CCCCN)C(=O)N[C@@H](CCCNC(=N)N)C(=O)N[C@@H](C)C(=O)N3)NC(=O)[C@H](CCC(=O)O)NC(=O)[C@H](CC(C)C)NC(=O)CNC(=O)[C@H](CCC(=O)O)NC2=O [compound 407]
IC50 (hNav1.7; [2]): 6.48 nM | IC50 (hNav1.4; [3]): 549 nM

C#CC[C@H](N)C(=O)NCCOCCOCCOCCOCCC(=O)NCCCC[C@@H]1NC(=O)[C@H](CCCNC(=N)N)NC(=O)[C@H](CCCCN)NC(=O)[C@H](CO)NC(=O)[C@H](CC(=O)O)NC(=O)[C@@H]2CSSC[C@@H]3NC(=O)[C@H](CCCNC(=N)N)NC(=O)[C@H](CC(C)C)NC(=O)CNC(=O)[C@H](CCC(=O)O)NC(=O)[C@H](CSSC[C@H](NC(=O)[C@H](Cc4ccc(O)cc4)NC(=O)[C@@H](N)CCC)C(=O)N[C@@H](CCC(N)=O)C(=O)N[C@@H](CCCCN)C(=O)N[C@@H](Cc4c[nH]c5ccccc45)C(=O)N[C@@H](CCCC)C(=O)N[C@@H](Cc4c[nH]c5ccccc45)C(=O)N[C@@H]([C@@H](C)O)C(=O)N2)NC(=O)[C@H](CSSC[C@@H](C(=O)N[C@@H](CCCNC(=N)N)C(=O)N[C@@H](CCCCN)C(=O)N[C@H](C(=O)N[C@H](C(N)=O)[C@@H](C)CC)[C@@H](C)CC)NC(=O)[C@H](Cc2c[nH]c4ccccc24)NC(=O)[C@H](CC(C)C)NC(=O)[C@H](CCCCN)NC3=O)NC1=O [compound 432]
IC50 (hNav1.7; [1]): 1.43 nM and 1.56 nM | IC50 (hNav1.4; tonic block): 16.5 nM | Nav1.4/Nav1.7 (hNav1.4; ratio of PX tonic IC50 values): 12

C#CC[C@H](N)C(=O)NCCCC[C@@H]1NC(=O)[C@H](CCCNC(=N)N)NC(=O)[C@H](CCCCN)NC(=O)[C@H](CO)NC(=O)[C@H](CC(=O)O)NC(=O)[C@@H]2CSSC[C@@H]3NC(=O)[C@H](CCCNC(=N)N)NC(=O)[C@H](CC(C)C)NC(=O)CNC(=O)[C@H](CCC(=O)O)NC(=O)[C@H](CSSC[C@H](NC(=O)[C@H](Cc4ccc(O)cc4)NC(=O)[C@@H](N)CCC)C(=O)N[C@@H](CCC(N)=O)C(=O)N[C@@H](CCCCN)C(=O)N[C@@H](Cc4c[nH]c5ccccc45)C(=O)N[C@@H](CCCC)C(=O)N[C@@H](Cc4c[nH]c5ccccc45)C(=O)N[C@@H]([C@@H](C)O)C(=O)N2)NC(=O)[C@H](CSSC[C@@H](C(=O)N[C@@H](CCCNC(=N)N)C(=O)N[C@@H](CCCCN)C(=O)N[C@@H](CCC(=O)O)C(=O)N[C@H](C(N)=O)[C@@H](C)CC)NC(=O)[C@H](Cc2c[nH]c4ccccc24)NC(=O)[C@H](CC(C)C)NC(=O)[C@H](CCCCN)NC3=O)NC1=O [compound 435]
IC50 (hNav1.7; [1]): 2.19 nM | IC50 (hNav1.4; tonic block): 217 nM | Nav1.4/Nav1.7 (hNav1.4; ratio of PX tonic IC50 values): 99

C#CC[C@H](N)C(=O)NCCCC[C@@H]1NC(=O)[C@H](CCCNC(=N)N)NC(=O)[C@H](CCCCN)NC(=O)[C@H](CO)NC(=O)[C@H](CC(=O)O)NC(=O)[C@@H]2CSSC[C@@H]3NC(=O)[C@H](CCC(=O)O)NC(=O)[C@H](CC(C)C)NC(=O)CNC(=O)[C@H](CCC(=O)O)NC(=O)[C@H](CSSC[C@H](NC(=O)[C@H](Cc4ccc(O)cc4)NC(=O)[C@@H](N)CCC)C(=O)N[C@@H](CCC(N)=O)C(=O)N[C@@H](CCCCN)C(=O)N[C@@H](Cc4c[nH]c5ccccc45)C(=O)N[C@@H](CC(C)C)C(=O)N[C@@H](Cc4c[nH]c5ccccc45)C(=O)N[C@@H]([C@@H](C)O)C(=O)N2)NC(=O)[C@H](CSSC[C@@H](C(=O)N[C@@H](CCCNC(=N)N)C(=O)N[C@@H](CCCCN)C(=O)N[C@@H](Cc2ccc(O)cc2)C(=O)N[C@H](C(N)=O)[C@@H](C)CC)NC(=O)[C@H](Cc2c[nH]c4ccccc24)NC(=O)[C@H](CC(C)C)NC(=O)[C@H](CCCCN)NC3=O)NC1=O [compound 440]
IC50 (hNav1.7; [1]): 1.95 nM

C#CC[C@H](N)C(=O)NCCCC[C@@H]1NC(=O)[C@H](CCCNC(=N)N)NC(=O)[C@H](CCCCN)NC(=O)[C@H](CO)NC(=O)[C@H](CC(=O)O)NC(=O)[C@@H]2CSSC[C@@H]3NC(=O)[C@H](CCC(=O)O)NC(=O)[C@H](CC(C)C)NC(=O)CNC(=O)[C@H](CCC(=O)O)NC(=O)[C@H](CSSC[C@H](NC(=O)[C@H](Cc4ccc(O)cc4)NC(=O)[C@@H](N)CCC)C(=O)N[C@@H](CCC(N)=O)C(=O)N[C@@H](CCCCN)C(=O)N[C@@H](Cc4c[nH]c5ccccc45)C(=O)N[C@@H](CC(C)C)C(=O)N[C@@H](Cc4c[nH]c5ccccc45)C(=O)N[C@@H]([C@@H](C)O)C(=O)N2)NC(=O)[C@H](CSSC[C@@H](C(=O)N[C@@H](CCCNC(=N)N)C(=O)N[C@@H](CCCCN)C(=O)N[C@H](C(=O)N[C@@H](Cc2c[nH]c4ccccc24)C(N)=O)[C@@H](C)CC)NC(=O)[C@H](Cc2c[nH]c4ccccc24)NC(=O)[C@H](CC(C)C)NC(=O)[C@H](CCCCN)NC3=O)NC1=O [compound 441]
IC50 (hNav1.7; [1]): 10.4 nM

[1-Nal7]JzTx-V(1-29) [SEQ ID NO: 30]
hNav1.7 potency/activity compared with wild type JzTx-V (hNav1.7): retained hNav1.7 activity similar to the wild type peptide

[1-Nal24]JzTx-V(1-29) [SEQ ID NO: 43]
hNav1.7 potency/activity compared with wild type JzTx-V (hNav1.7): loses considerable activity against hNav1.7

[Phe6,Atz(500 Da EtO-PEG*-{[Phe6,Atz13*]GpTx-1(1-34)})13]GpTx-1(1-34) [Homodimeric Conjugate No. 4]
Wash out (hNav1.7): Yes | IC50 (hNav1.7; read-out: Nav1.7 PX IC50): 19 nM
